Where no end group is shown, it is not given here. [ ]: non-standard residue; d: D form. pGlu = O=C1CC[C@@H](C(=O)O)N1
Key:
Caspase-1 (ICE) = molecular target: T1, Caspase-1 (ICE) (Homo sapiens, UniProt P29466); test: Measurement of ICE-inhibiting activity (Ac-Trp-Glu-His-Asp-AMC substrate, HPLC quantification); format: biochemical; conditions: 1 mg/mL peptide sample, 5 μL in reaction; 37° C., 20 minutes; Control (No Peptide) = 100%; lower = more inhibition
T1 construct: purchased Biomol; International LP
T1 sequence (P29466 120-297 limits assumed): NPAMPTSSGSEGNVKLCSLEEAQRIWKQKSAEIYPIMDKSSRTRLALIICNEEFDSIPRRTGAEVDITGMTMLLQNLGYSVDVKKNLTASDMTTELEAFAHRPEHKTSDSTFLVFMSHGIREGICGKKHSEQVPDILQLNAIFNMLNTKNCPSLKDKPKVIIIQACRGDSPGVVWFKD
T1 sequence (P29466 317-404 limits assumed): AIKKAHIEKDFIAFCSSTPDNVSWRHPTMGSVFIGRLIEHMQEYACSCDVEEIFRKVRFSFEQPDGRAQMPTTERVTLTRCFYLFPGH
Experimental: One mg/mL each of samples of pyroglutamyl peptides (pyroGlu-Leu, pyroGlu-Val, pyroGlu-Met, pyroGlu-Phe, pyroGlu-Gln-Gln, and pyroGlu-Pro-Gln) synthesized in Production Examples above were prepared and evaluated for ICE-inhibiting activity as follows.
Each sample (5 μL) was added to 10 μL of 2,000 μmol/L reactive substrate (Caspase-1 substrate (Ac-Trp-Glu-His-Asp-AMC) from Alexis Biochemicals), 5 μL of 10 U/μl enzyme solution (Caspase-1 from Biomol. International LP), 60 μL of buffer (50 mmol/L HEPES, pH 7.4, 100 mM NaCl, 0.1% CHAPS, 1 mM EDTA, 10% glycerol, and 10 mM DTT), and 20 μL of distilled water, which was reacted at 37° C. for 20 minutes. Thereto was added 10% trifluoroacetic acid to a final concentration of 1% to stop the reaction. The substrate and the product were separated under the following conditions using reversed-phase high-performance liquid chromatography. The substrate and the product were fluorescently measured at an excitation wavelength of 380 nm and a measuring wavelength of 460 nm for quantification.
(§1) (Chromatography Condition)
(§2) Solution A: 10% acetonitrile (0.1% TFA)/Solution B: 80% acetonitrile (0.1% TFA)
(§3) Gradient: Solution B from 50% to 100%
(§4) Measuring Wavelength: 230 nm
The results are shown in Table 2 below as the ratio of the fluorescence intensity of the product to the fluorescence intensity of the product and the substrate.

Recombinant Human TACE = molecular target: T2, Recombinant Human TACE (Homo sapiens, UniProt P78536); test: Measurement of TACE-inhibiting activity (fluorogenic substrate, HPLC quantification); format: biochemical; conditions: 1 mg/mL peptide sample, 10 μL in reaction; 37° C., 20 minutes; Control (No Peptide) = 100%; lower = more inhibition
T2 construct: purchased R&D Systems
T2 sequence (P78536 215-824): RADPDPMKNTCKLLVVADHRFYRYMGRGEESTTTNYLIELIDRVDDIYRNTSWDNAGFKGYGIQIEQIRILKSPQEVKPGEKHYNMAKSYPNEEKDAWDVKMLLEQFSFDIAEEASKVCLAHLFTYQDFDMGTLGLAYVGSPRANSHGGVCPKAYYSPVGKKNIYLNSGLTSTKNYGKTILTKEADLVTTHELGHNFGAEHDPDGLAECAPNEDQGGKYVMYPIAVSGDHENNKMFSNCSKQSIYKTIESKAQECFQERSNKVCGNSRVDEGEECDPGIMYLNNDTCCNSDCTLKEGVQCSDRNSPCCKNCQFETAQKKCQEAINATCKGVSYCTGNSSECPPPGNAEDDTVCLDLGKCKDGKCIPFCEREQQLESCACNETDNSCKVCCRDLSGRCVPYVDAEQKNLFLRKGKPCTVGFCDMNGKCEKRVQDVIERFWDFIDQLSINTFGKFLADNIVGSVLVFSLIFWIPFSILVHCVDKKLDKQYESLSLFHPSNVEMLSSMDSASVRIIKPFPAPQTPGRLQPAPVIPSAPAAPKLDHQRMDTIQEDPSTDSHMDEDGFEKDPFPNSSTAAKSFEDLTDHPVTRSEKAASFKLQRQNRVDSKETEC
Experimental: One mg/mL each of samples of pyroglutamyl peptides (pyroGlu-Leu, pyroGlu-Val, pyroGlu-Met, pyroGlu-Phe, pyroGlu-Gln-Gln, and pyroGlu-Pro-Gln) synthesized in Production Examples above were prepared and evaluated for TACE-inhibiting activity as follows.
Each sample (10 μL) was added to 10 μL of 1 μmol/L reactive substrate (TACE Substrate (Mac-PLAQAV-Dpa-RSSSR-NH2) from Biomol. International LP), 10 μL of 10 ng/10 μL enzyme solution (Recombinant Human TACE from R&D Systems), 50 μL of buffer (50 mmol/L Tris-HCl, pH 9.0, 5 μM ZnCl2, 0.01% Brij35), and 20 μL of distilled water, which was reacted at 37° C. for 20 minutes. Thereto was added 10% trifluoroacetic acid to a final concentration of 1% to stop the reaction. The substrate and the product were separated under the following conditions using reversed-phase high-performance liquid chromatography. The substrate and the product were fluorescently measured at an excitation wavelength of 320 nm and a measuring wavelength of 405 nm for quantification.
as §1, §2, §3, §4
The results are shown in Table 1 below as the ratio of the fluorescence intensity of the product to the fluorescence intensity of the product and the substrate.

| Substance | ratio of the fluorescence intensity of the product to the fluorescence intensity of the product and the substrate (ICE/caspase-1 reaction) (Caspase-1 (ICE)) [%] | ratio of the fluorescence intensity of the product to the fluorescence intensity of the product and the substrate (TACE reaction) (Recombinant Human TACE) [%] |
| --- | --- | --- |
| [pGlu]-Pro-Gln | 62 | 66 |
| [pGlu]-Gln-Gln | 63 | 70 |
| [pGlu]-Met | 75 | 83 |
| [pGlu]-Leu | 55 | 61 |
| [pGlu]-Val | 74 | 81 |
| pyroGlu-Phe | 72 | 84 |
